Experimental findings from patent publication US12448383B2, “Compounds and methods for treatment of viral infections” (priority 2022, dated 2025) are described below.

Series [1] can be described thus: GI S9 stability - no PMSF. In kind it is in vitro ADME. Conditions: pH 7.4; human intestinal S9, PMSF-free; read-out: GIS9-HUMAN-NoPMSF T1/2. The method in brief:
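Stability was assessed by Q-Exactive LC-MS peak area ratios against internal standard, tracking loss of parent and appearance of nucleoside metabolite Reference Compound A. Incubations used 2 μM compound in 1 mg/mL intestinal S9 without PMSF (PBS, pH 7.4), with six samples taken over 120 min.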

The subject of series [2] is Respiratory syncytial virus recombinant with luciferase (RSV-Luc5) in HEp-2 cells. Nature of the series: microbe, parasite or virus in culture. Conditions: human respiratory syncytial virus, HEp-2, 72 h, read-out: RSV Hep2 EC50. Type of series: cell-based.
Series [3] deals with Respiratory syncytial virus recombinant with luciferase (RSV-Luc5) in Normal Human Bronchial Epithelial (NHBE) cells. Description: microbe, parasite or virus in culture. Type of series: cell-based. The conditions noted are these: 72 h, read-out: RSV NHBE EC50.
Series [4] is described as follows: CC50 MT4 cytotoxicity (Cell-Titer Glo). Type of series: cell-based. The conditions noted are these: human. The gist of the method:
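CC50 values are the concentrations cutting viability by 50%, fitted by non-linear regression against untreated (100%) and 2 μM puromycin (0%) controls. Cell-Titer Glo luminescence measured after 4-5 days at 37° C exposure of uninfected MT-4 and HEp-2 cells to 3-fold dilutions spanning 15 nM to 100,000 nM.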

Series [5] has as its system SARS Coronavirus 2 recombinant with NanoLuc (SARS-CoV2-NLuc) in A549-hACE2 cells. Description: organism not typed. Type of series: cell-based. Conditions: 48 h; read-out: SARS-CoV2 EC50.
Series [6] deals with Caco-2 cells (clone C2BBe1). Description: CACO-2 permeability. Type of series: in vitro ADME. Further details: unit not given here. Conditions: for DM Caco2 A to B: apical to basolateral, donor pH 6.5, receiver pH 7.4; for DM Caco2 B to A: basolateral to apical. The gist of the method: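 A-to-B and B-to-A flux measured by LC-MS/MS from receiver samples taken at 1 and 2 h, with donor sampled at 0 and 2 h and recovery checked. Buffers: pH 6.5 HBSS with 200 μM BNPP on the donor side, pH 7.4 with BSA on the receiver side. Monolayers were 21-day cultures, TEER-verified, in duplicate wells.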
In general terms: Caco-2 cells form a polarised layer with tight junctions and transporters.

A further series can be described thus: Plasma stability. In kind it is in vitro ADME. Also noted: unit not given here. The conditions noted are these: 37° C., 2 μM substrate. The gist of the method: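 LC-MS (Q-Exactive, 5 ppm tolerance, 0.1% formic acid water/acetonitrile gradient) quantified compound in quenched aliquots. Aliquots were taken at 0.05, 0.5, 1, 2, 3 and 4 hr and quenched with internal-standard solution, and supernatants were diluted with water after centrifugation.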

Molecules are shown by their SMILES.

By EC50 is commonly meant the concentration at which the effect is half-maximal. For orientation: CC50 means the concentration that lowers cell viability or growth by half.

As to `Cc1oc(=O)oc1COC(=O)OC[C@H]1O[C@@](C#N)(c2ccc3c(N)ncnn23)[C@H](O)[C@@H]1O` [Compound 26, ((2R,3S,4R,5R)-5-(4-aminopyrrolo[2,1-f][1,2,4]triazin-7-yl)-5-cyano-3,4-dihydroxytetrahydrofuran-2-yl)methyl ((5-methyl-2-oxo-1,3-dioxol-4-yl)methyl) carbonate], the half-life at 2 µM in series [1] is 29.2 s. The EC50 worked out at 0.942 µM in series [2], 0.844 µM in series [3] and 2.39 µM in series [5]. The same molecule returned a CC50 in series [4] of more than 50 µM. For the same molecule, the “DM Caco2 A to B” value in series [6] amounted to 0.07. Besides, the “DM Caco2 B to A” value in series [6] is 0.36. Also, the “STA Human Plasma 37” value in “Plasma stability” is 33.7.

Take `N#C[C@@]1(c2ccc3c(N)ncnn23)O[C@H](COC(=O)OC2CC3(CCC3)C2)[C@@H](O)[C@H]1O` [Compound 29, ((2R,3S,4R,5R)-5-(4-aminopyrrolo[2,1-f][1,2,4]triazin-7-yl)-5-cyano-3,4-dihydroxytetrahydrofuran-2-yl)methyl spiro[3.3]heptan-2-yl carbonate]: the half-life at 2 µM in series [1] stood at 37 s. The figures for the EC50 in series [2], in series [3] and in series [5] were 0.109 µM, 1.3 µM and 0.835 µM, respectively. For the same molecule, in series [4], the CC50 is more than 50 µM. Moreover, in series [6], the “DM Caco2 A to B” value is 1.91. In series [6], the “DM Caco2 B to A” value was determined as 12.29. Also, in the series “Plasma stability”, the “STA Human Plasma 37” value amounted to 139.

Regarding `CC1(C)CC(OC(=O)OC[C@H]2O[C@@](C#N)(c3ccc4c(N)ncnn34)[C@H](O)[C@@H]2O)C1` [Compound 31, ((2R,3S,4R,5R)-5-(4-aminopyrrolo[2,1-f][1,2,4]triazin-7-yl)-5-cyano-3,4-dihydroxytetrahydrofuran-2-yl)methyl (3,3-dimethylcyclobutyl) carbonate], the half-life at 2 µM in series [1] was 51.4 s. Besides, the figures for the EC50 in series [2], in series [3] and in series [5] were 0.322 µM, 0.803 µM and 1.08 µM, respectively. The CC50 in series [4] is more than 50 µM. Further, the “DM Caco2 A to B” value in series [6] is 0.68. Besides, the “DM Caco2 B to A” value in series [6] is listed as 13. Further, the “STA Human Plasma 37” value in “Plasma stability” is on record as 32.4.

Consider `N#C[C@@]1(c2ccc3c(N)ncnn23)O[C@H](COC(=O)OC2CCCCC2)[C@@H](O)[C@H]1O` [Compound 35, ((2R,3S,4R,5R)-5-(4-aminopyrrolo[2,1-f][1,2,4]triazin-7-yl)-5-cyano-3,4-dihydroxytetrahydrofuran-2-yl)methyl cyclohexyl carbonate], for which the half-life at 2 µM in series [1] came to 35.6 s. The EC50 in series [2] was 0.651 µM; in series [3], 1.01 µM; in series [5], 1.91 µM. In series [4], this molecule returned a CC50 of more than 50 µM. The “DM Caco2 A to B” value in series [6] worked out at 0.95. Moreover, in series [6], the “DM Caco2 B to A” value is on record as 10.64. For the same molecule, the “STA Human Plasma 37” value in “Plasma stability” was 139.6.

Regarding `N#C[C@@]1(c2ccc3c(N)ncnn23)O[C@H](COC(=O)OC2CCOCC2)[C@@H](O)[C@H]1O` [Compound 50, ((2R,3S,4R,5R)-5-(4-aminopyrrolo[2,1-f][1,2,4]triazin-7-yl)-5-cyano-3,4-dihydroxytetrahydrofuran-2-yl)methyl (tetrahydro-2H-pyran-4-yl) carbonate], the half-life at 2 µM in series [1] worked out at 914 s. Besides, the concentration giving a half-maximal response (EC50) in series [2] is 1.92 µM; in series [3], 1.37 µM; in series [5], 20.4 µM. Moreover, the CC50 in series [4] was more than 50 µM. For the same molecule, in series [6], the “DM Caco2 A to B” value was determined as 0.13. Moreover, the “DM Caco2 B to A” value in series [6] is 2.76. Moreover, in the series “Plasma stability”, the “STA Human Plasma 37” value is 430.4.

Turning to `N#C[C@@]1(c2ccc3c(N)ncnn23)O[C@H](COC(=O)OCC23CCC(CC2)C3)[C@@H](O)[C@H]1O` [Compound 52, ((2R,3S,4R,5R)-5-(4-aminopyrrolo[2,1-f][1,2,4]triazin-7-yl)-5-cyano-3,4-dihydroxytetrahydrofuran-2-yl)methyl (bicyclo[2.2.1]heptan-1-ylmethyl) carbonate], the half-life at 2 µM in series [1] was determined as 39.3 s. In addition, the figures for the EC50 in series [2], in series [3] and in series [5] were 0.1 µM, 0.919 µM and 0.574 µM, respectively. Also, the CC50 in series [4] is 38.8 µM. In series [6], the “DM Caco2 A to B” value is 6.95. Besides, the “DM Caco2 B to A” value in series [6] is listed as 13.04. Also, the “STA Human Plasma 37” value in “Plasma stability” came out at 85.

Take `N#C[C@@]1(c2ccc3c(N)ncnn23)O[C@H](COC(=O)OCC2CCC2)[C@@H](O)[C@H]1O` [Compound 53, ((2R,3S,4R,5R)-5-(4-aminopyrrolo[2,1-f][1,2,4]triazin-7-yl)-5-cyano-3,4-dihydroxytetrahydrofuran-2-yl)methyl (cyclobutylmethyl) carbonate]: in series [1], the half-life at 2 µM turned out to be 38.2 s. Besides, the EC50 in series [2] stood at 0.098 µM; in series [3], 0.833 µM; in series [5], 0.662 µM. In series [4], this molecule displayed a CC50 of more than 50 µM. The “DM Caco2 A to B” value in series [6] came out at 2.34. Besides, in series [6], the “DM Caco2 B to A” value is recorded as 10.58. Besides, the “STA Human Plasma 37” value in the series “Plasma stability” is listed as 13.

With `CC1(OC(=O)OC[C@H]2O[C@@](C#N)(c3ccc4c(N)ncnn34)[C@H](O)[C@@H]2O)CCCC1` [Compound 56, ((2R,3S,4R,5R)-5-(4-aminopyrrolo[2,1-f][1,2,4]triazin-7-yl)-5-cyano-3,4-dihydroxytetrahydrofuran-2-yl)methyl (1-methylcyclopentyl) carbonate], in series [1], the half-life at 2 µM is 990 s. Also, the values for the EC50 in series [2], in series [3] and in series [5] were 1.26 µM, 1.21 µM and 2.52 µM, respectively. Moreover, the CC50 in series [4] is more than 50 µM. Moreover, the “DM Caco2 A to B” value in series [6] came to 0.35. Also, in series [6], the “DM Caco2 B to A” value is given as 1.83. In addition, in “Plasma stability”, the “STA Human Plasma 37” value stood at 77.644.

As for `CCC(C)(CC)OC(=O)OC[C@H]1O[C@@](C#N)(c2ccc3c(N)ncnn23)[C@H](O)[C@@H]1O` [Compound 69, ((2R,3S,4R,5R)-5-(4-aminopyrrolo[2,1-f][1,2,4]triazin-7-yl)-5-cyano-3,4-dihydroaytetrahydrofuran-2-yl)methyl (3-methylpentan-3-yl) carbonate], the half-life at 2 µM in series [1] was determined as 2920 s. Besides, the EC50 worked out at 1.05 µM in series [2], 0.988 µM in series [3] and 2.83 µM in series [5]. This molecule also came in with a CC50 in series [4] of more than 50 µM. For the same molecule, the “DM Caco2 A to B” value in series [6] turned out to be 1. Also, the “DM Caco2 B to A” value in series [6] stood at 4.74. Also, the “STA Human Plasma 37” value in the series “Plasma stability” amounted to 294.49.

Consider `CCC(C)(C)OC(=O)OC[C@H]1O[C@@](C#N)(c2ccc3c(N)ncnn23)[C@H](O)[C@@H]1O` [Compound 70, ((2R,3S,4R,5R)-5-(4-aminopyrrolo[2,1-f][1,2,4]triazin-7-yl)-5-cyano-3,4-dihydroxytetrahydrofuran-2-yl)methyl tert-pentyl carbonate], for which the half-life at 2 µM in series [1] turned out to be 4380 s. In addition, the EC50 stood at 1.72 µM in series [2], 2.18 µM in series [3] and 2.81 µM in series [5]. Also, the CC50 in series [4] is more than 50 µM. Moreover, in series [6], the “DM Caco2 A to B” value is 0.88. The “DM Caco2 B to A” value in series [6] is given as 6.91. The “STA Human Plasma 37” value in the series “Plasma stability” stood at 1399.3.

On to `N#C[C@@]1(c2ccc3c(N)ncnn23)O[C@H](COC(=O)OCC2CCCCC2)[C@@H](O)[C@H]1O` [Compound 86, ((2R,3S,4R,5R)-5-(4-aminopyrrolo[2,1-f][1,2,4]triazin-7-yl)-5-cyano-3,4-dihydroxytetrahydrofuran-2-yl)methyl (cyclohexylmethyl) carbonate], for which, in series [1], the half-life at 2 µM came out at 41 s. In addition, the concentration for a half-maximal effect (EC50) in series [2] worked out at 0.371 µM; in series [3] it was 1.22 µM; in series [5] it was 0.623 µM. In addition, in series [4], the CC50 is more than 50 µM. Besides, the “STA Human Plasma 37” value in “Plasma stability” is reported as 48.6.

In the case of `CC[C@@H](C)OC(=O)OC[C@H]1O[C@@](C#N)(c2ccc3c(N)ncnn23)[C@H](O)[C@@H]1O` [Compound 89, ((2R,3S,4R,5R)-5-(4-aminopyrrolo[2,1-f][1,2,4]triazin-7-yl)-5-cyano-3,4-dihydroxytetrahydrofuran-2-yl)methyl ((R)-sec-butyl) carbonate], the half-life at 2 µM in series [1] was found to be 35.4 s. For the same molecule, the EC50 in series [2] came to 0.665 µM; in series [3], 0.978 µM; in series [5] it was 2.69 µM. Moreover, the CC50 in series [4] is more than 50 µM. Besides, the “STA Human Plasma 37” value in the series “Plasma stability” is reported as 188.5.
